Laboratory results reported in ChEMBL document CHEMBL4334544, “BRM Targeting Compounds for the Potential Treatment of Cancer” (ACS Med Chem Lett, 2020).

Tests used:
[1] = target: T1, von Hippel-Lindau disease tumor suppressor/SWI/SNF-related matrix-associated actin-dependent regulator of chromatin subfamily A member 4 (Homo sapiens, UniProt P51532+P40337); assay: Protac activity at E3 ubiquitin ligase/BRG1 (unknown origin) assessed as E3 ubiquitin ligase mediated BRG1 degradation
Target sequence in this assay (P51532 whole entry): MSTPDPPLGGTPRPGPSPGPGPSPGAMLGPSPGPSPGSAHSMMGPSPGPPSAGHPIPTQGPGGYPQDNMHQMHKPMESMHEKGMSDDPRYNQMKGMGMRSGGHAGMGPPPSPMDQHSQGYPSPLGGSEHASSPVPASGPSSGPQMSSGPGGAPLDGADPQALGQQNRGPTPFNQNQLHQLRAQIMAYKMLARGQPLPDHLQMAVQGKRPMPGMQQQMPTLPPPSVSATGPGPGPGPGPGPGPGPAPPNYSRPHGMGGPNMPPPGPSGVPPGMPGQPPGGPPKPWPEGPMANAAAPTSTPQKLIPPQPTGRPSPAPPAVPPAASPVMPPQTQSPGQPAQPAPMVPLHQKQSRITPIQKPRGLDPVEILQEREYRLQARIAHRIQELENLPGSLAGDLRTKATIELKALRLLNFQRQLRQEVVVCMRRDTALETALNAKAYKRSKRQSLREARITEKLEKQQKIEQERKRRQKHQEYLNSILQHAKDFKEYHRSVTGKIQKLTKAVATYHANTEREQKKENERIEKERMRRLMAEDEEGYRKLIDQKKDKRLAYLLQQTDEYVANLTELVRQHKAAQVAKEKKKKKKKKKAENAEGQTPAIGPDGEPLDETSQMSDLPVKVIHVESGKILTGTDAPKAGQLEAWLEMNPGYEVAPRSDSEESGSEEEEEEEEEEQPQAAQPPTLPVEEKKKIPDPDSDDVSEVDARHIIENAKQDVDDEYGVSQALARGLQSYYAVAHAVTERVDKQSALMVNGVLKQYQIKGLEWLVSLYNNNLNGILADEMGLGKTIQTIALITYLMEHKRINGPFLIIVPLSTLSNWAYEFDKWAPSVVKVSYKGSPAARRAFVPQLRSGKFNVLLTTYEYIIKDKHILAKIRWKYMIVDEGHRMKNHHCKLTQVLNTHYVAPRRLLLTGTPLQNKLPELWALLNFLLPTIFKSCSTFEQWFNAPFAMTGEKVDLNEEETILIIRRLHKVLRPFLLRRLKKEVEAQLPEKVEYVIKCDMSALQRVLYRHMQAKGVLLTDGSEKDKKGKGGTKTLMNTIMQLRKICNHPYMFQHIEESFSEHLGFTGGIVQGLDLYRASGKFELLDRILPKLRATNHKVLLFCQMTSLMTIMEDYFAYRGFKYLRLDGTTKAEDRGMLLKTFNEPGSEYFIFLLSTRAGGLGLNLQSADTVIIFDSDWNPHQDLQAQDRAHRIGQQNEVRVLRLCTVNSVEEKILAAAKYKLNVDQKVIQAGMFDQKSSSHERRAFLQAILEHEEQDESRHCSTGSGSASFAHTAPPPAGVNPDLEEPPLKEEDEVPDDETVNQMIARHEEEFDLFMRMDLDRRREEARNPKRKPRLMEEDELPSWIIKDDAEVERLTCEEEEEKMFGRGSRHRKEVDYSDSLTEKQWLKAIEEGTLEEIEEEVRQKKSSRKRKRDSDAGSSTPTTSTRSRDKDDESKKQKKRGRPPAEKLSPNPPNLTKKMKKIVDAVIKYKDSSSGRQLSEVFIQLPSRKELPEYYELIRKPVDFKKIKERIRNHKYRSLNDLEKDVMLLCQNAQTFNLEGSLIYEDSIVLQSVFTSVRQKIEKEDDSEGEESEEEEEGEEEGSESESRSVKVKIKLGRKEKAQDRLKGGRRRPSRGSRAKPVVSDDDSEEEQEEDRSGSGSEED
Target sequence in this assay (P40337 whole entry): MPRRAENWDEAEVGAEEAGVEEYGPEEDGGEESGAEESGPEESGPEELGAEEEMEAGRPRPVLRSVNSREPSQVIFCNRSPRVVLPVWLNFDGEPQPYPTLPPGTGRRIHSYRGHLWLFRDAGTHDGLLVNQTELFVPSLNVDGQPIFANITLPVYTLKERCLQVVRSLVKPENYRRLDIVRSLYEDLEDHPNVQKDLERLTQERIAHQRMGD

[2] = target: T2, Protein cereblon/SWI/SNF-related matrix-associated actin-dependent regulator of chromatin subfamily A member 2 (Homo sapiens, UniProt P51531+Q96SW2); assay: Protac activity at E3 ubiquitin ligase/BRM in human SW1573 cells assessed as E3 ubiquitin ligase-mediated BRM degradation at 0.3 to 10 uM incubated for 18 to 20 hrs by Western blot analysis relative to control; format: cell-based
[3] = target: T2, Protein cereblon/SWI/SNF-related matrix-associated actin-dependent regulator of chromatin subfamily A member 2; assay: Protac activity at E3 ubiquitin ligase/BRM in human SW1573 cells assessed as E3 ubiquitin ligase-mediated BRM degradation incubated for 18 to 20 hrs by Western blot analysis; format: cell-based
[4] = target: T1, von Hippel-Lindau disease tumor suppressor/SWI/SNF-related matrix-associated actin-dependent regulator of chromatin subfamily A member 4; assay: Protac activity at E3 ubiquitin ligase/BRG1 (unknown origin) assessed as E3 ubiquitin ligase mediated BRG1 degradation at 0.3 to 10 uM relative to control
Target sequence in this assay (P40337 whole entry, looked up): as the sequence (P40337 whole entry) above
Target sequence in this assay (P51532 whole entry, looked up): as the sequence (P51532 whole entry) above

T2 sequence (P51531 whole entry): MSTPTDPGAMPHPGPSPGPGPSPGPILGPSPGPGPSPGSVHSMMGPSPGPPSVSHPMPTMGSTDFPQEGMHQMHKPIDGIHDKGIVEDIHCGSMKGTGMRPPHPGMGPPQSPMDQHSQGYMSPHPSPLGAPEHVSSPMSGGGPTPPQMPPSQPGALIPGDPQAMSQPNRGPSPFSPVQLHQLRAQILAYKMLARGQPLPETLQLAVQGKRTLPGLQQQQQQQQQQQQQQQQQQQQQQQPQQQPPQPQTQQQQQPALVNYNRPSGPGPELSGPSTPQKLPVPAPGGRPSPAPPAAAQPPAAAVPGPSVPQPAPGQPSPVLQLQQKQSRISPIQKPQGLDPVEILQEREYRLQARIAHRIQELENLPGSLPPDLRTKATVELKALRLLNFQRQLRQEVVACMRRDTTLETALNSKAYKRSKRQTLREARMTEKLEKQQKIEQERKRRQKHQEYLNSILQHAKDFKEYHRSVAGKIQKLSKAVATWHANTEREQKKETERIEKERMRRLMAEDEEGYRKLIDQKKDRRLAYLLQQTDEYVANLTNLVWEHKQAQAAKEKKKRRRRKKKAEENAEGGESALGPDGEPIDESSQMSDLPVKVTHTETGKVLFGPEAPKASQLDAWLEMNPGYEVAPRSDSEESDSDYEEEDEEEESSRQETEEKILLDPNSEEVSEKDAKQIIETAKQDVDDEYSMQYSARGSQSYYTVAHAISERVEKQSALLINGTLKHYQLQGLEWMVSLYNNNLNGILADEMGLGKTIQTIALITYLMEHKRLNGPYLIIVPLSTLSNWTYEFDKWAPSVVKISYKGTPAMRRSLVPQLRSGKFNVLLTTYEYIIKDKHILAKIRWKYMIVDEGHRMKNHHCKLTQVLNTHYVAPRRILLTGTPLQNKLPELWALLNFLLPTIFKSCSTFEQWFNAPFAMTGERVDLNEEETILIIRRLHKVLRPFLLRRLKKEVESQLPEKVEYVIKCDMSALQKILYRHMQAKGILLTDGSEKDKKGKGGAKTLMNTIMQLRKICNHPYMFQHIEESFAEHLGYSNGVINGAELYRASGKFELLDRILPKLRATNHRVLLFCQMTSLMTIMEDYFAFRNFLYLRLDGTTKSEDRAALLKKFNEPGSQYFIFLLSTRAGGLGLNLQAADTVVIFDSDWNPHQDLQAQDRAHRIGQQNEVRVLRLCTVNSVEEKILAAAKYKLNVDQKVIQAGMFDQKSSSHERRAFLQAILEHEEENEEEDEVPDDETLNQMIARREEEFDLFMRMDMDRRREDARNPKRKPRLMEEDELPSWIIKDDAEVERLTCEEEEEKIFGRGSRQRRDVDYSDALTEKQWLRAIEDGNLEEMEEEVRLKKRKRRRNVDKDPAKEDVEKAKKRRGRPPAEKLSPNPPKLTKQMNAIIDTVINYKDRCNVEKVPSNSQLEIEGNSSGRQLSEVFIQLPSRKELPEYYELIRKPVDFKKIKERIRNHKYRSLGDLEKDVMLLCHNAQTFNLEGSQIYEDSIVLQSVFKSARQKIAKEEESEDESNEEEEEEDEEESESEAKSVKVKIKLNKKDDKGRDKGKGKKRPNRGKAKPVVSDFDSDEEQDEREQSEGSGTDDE
T2 sequence (Q96SW2 whole entry): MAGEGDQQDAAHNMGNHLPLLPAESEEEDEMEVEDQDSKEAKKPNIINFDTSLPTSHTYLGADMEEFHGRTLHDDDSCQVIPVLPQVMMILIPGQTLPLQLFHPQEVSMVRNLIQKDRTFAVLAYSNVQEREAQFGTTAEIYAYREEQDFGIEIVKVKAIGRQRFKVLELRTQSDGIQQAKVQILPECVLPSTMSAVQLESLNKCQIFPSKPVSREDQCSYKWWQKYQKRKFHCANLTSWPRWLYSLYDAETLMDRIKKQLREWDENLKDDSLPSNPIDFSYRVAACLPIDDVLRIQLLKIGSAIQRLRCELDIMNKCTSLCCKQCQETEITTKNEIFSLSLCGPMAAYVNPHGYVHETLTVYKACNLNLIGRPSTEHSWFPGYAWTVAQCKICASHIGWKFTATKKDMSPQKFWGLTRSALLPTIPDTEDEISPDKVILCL

Compound	DC50 [1]	%max [2]	DC50 [3]	%max [4]
Cc1ncsc1-c1ccc([C@H](C)NC(=O)[C@@H]2C[C@@H](O)CN2C(=O)[C@@H](c2cc(OC3CN(CCN4CCC(O[C@H]5C[C@H](Oc6cc(N7C8CCC7CN(c7cc(-c9ccccc9O)nnc7N)C8)ccn6)C5)CC4)C3)no2)C(C)C)cc1	2.5 to 10 nM	> 75%	< 2.5 nM	> 75%
Cc1ncsc1-c1ccc([C@H](C)NC(=O)[C@@H]2C[C@@H](O)CN2C(=O)[C@@H](c2cc(OCCN3CCC(OC4CN(c5cc(N6C7CCC6CN(c6cc(-c8ccccc8O)nnc6N)C7)ccn5)C4)CC3)no2)C(C)C)cc1	2.5 to 10 nM	> 75%	< 2.5 nM	> 75%
Cc1ncsc1-c1ccc([C@H](C)NC(=O)[C@@H]2C[C@@H](O)CN2C(=O)[C@@H](c2cc(C#CCN3CCC(O[C@H]4C[C@H](Oc5cc(N6C7CCC6CN(c6cc(-c8ccccc8O)nnc6N)C7)ccn5)C4)CC3)no2)C(C)C)cc1	2.5 to 10 nM	> 75%	< 2.5 nM	> 75%
Cc1ncsc1-c1ccc([C@H](C)NC(=O)[C@@H]2C[C@@H](O)CN2C(=O)[C@@H](c2cc(OCCCCN3CCN(CCCCOc4cc(N5C6CCC5CN(c5cc(-c7ccccc7O)nnc5N)C6)ccn4)CC3)no2)C(C)C)cc1	< 2.5 nM	> 75%	< 2.5 nM	> 75%
Cc1ncsc1-c1ccc([C@H](C)NC(=O)[C@@H]2C[C@@H](O)CN2C(=O)[C@@H](c2cc(OCCOCCOc3cc(N4C5CCC4CN(c4cc(-c6ccccc6O)nnc4N)C5)ccn3)no2)C(C)C)cc1	< 2.5 nM	> 75%	< 2.5 nM	> 75%
Cc1ncsc1-c1ccc([C@H](C)NC(=O)[C@@H]2C[C@@H](O)CN2C(=O)[C@@H](c2cc(N3CCC(O[C@H]4C[C@H](Oc5cc(N6C7CCC6CN(c6cc(-c8ccccc8O)nnc6N)C7)ccn5)C4)CC3)no2)C(C)C)cc1	< 2.5 nM	> 75%	< 2.5 nM	> 75%
